The source of these data is patent US12649755B2, “Plasmin inhibitor, preparation method therefor and application thereof” (SCINNOHUB PHARMACEUTICAL CO., LTD, priority 2020, dated 2026).

A short description of series [1]: Rat PK assay, intravenous administration. The format is in vivo. As to conditions: male, Sprague-Dawley, plasma, SD rats, 1 mg/kg single dose. How it is done: The pharmacokinetic profile of the compounds of the invention in rats was studied by measuring the plasma drug concentration after intravenous administration.
Male Sprague-Dawley rats of SPF grade, 3 rats each group, were obtained from: Shanghai Sippe-Bk Lab Animal Co., Ltd.
The compound was weighed and dissolved in normal saline to prepare a 0.2 mg/mL solution for intravenous administration.
The day before the experiment, the rats were fasted overnight and fed 4 hours after administration.
On the day of the experiment, the rats were administered according to the scheme in the table below. At each time point after administration, approximately 200 μL of blood was collected from the jugular vein and placed in heparin sodium anticoagulation tubes. Blood samples were placed on ice after collection, and the plasma was separated by centrifugation within 1 hour (centrifugation conditions: 6800 g, 6 minutes, 2-8° C.). The separated plasma was stored in a refrigerator at −80° C. for biological sample analysis.
The compound concentration in rat plasma was determined by the following method: • Instruments and equipment: LC-MS/MS-19 (TQ5500, AB SCIEX, USA). • Internal standard: warfarin. • Chromatographic column: ACQUITY UPLC BEH C18, model 1.7 um 2.1*50 mm, purchased from Shenzhen Novah Chemical Technology Co., Ltd.; • Flow rate: 0.60 ml/min. • Column temperature: 40° C. • Mobile phase A: 0.1% formic acid in water. • Mobile phase B: 0.1% formic acid in acetonitrile.
Take 30 μL of the plasma sample prepared from item “3”, add 300 μL MeOH containing 100 ng/ml of internal standard to precipitate protein. The mixture was vortexed for 1 minute and centrifuged at 18000 g for 7 minutes. The supernatant was transferred to a 96-well plate. Inject 4 μL of supernatant into LC-MS/MS for analysis.
The concentration of the compound in rat plasma was determined by the above-mentioned LC-MS/MS analysis method, and pharmacokinetic parameters were calculated by using Phoenix WinNonlin7.0 software according to blood concentration data of different time points.

In series [2] the test system is plasma clots (human plasma, tPA-induced lysis). Nature of the series: Plasma clot lysis assay. As to conditions: human plasma, tPA, clot lysis time by absorbance at 405 nm; read-out: IC50 value for inhibition of plasma clot lysis. The format is biochemical. From the text:
To determine the inhibitory effect of the compounds of the invention on the degradation of plasma clots.
3. […] The time corresponding to the median of the absorption value in the descending section-the time corresponding to the median of the absorption value in the ascending section is the plasma clot degradation time (Clot lysis time).
Taking the log value of the compound concentration as the X-axis, and the percentage inhibition rate as the Y-axis, and dose-response curves were fitted with the software GraphPad Prism 5 by using log (inhibitor) vs. Response-Variable slope to derive IC50 values of compounds inhibiting the degradation of plasma clots. Y=min+(max−min)/(1+10^((LogIC50−X)×Hillslope). Formula: […]

A further series has as its system fibrinolysis. The note with it: relative to EACA; cited from earlier work.
Series [3] concerns human whole blood under hyperfibrinolytic state induced by rtPA. Nature of the series: Human whole blood thromboelastography (TEG) assay. The format is biochemical. How it is done: The antifibrinolytic effect of the compounds of the invention in the human whole blood under hyperfibrinolytic state induced by rtPA (recombinant tissue […]) was determined using the Thromboelastogram (TEG).
• Source of human blood: All human blood used in the experiments was provided by healthy volunteers. 3. Experimental Procedure • (1) Preparation of test substance solution: Accurately weigh the test substance, and use normal saline to prepare the test substance to the following concentrations (100×test concentration): • Tranexamic acid (μM): 3000, 1000, 300, 100, 30, 10, 0; • Example 6 (μM): 1000, 300, 100, 30, 10, 3, 0. • (2) Preparation of rt-PA (alteplase for injection): the active dry powder of rtPA was formulated to 25 μg/mL using water for injection in the rtPA package. • (3) Reaction system:
Mix 392 μL of sodium citrate anticoagulated whole blood with 4 μL rtPA and 4 μL test substance, reacted at room temperature, and TEG curve was detected for 2 hours to obtain the time parameter of CLT (clot lysis time). • (4) Result calculations
Taking the log value of the compound concentration as the X-axis and the CLT value as the Y-axis, and dose-response curves were fitted using log (inhibitor) vs. Response-Variable slope (GraphPad Prism 8 software).
The concentration of compound corresponding to doubling the CLT time was calculated.

In the case of `NC[C@H]1CC[C@H](C(=O)O)CC1` [Tranexamic acid, trans-4-aminomethyl-cyclohexane-carboxylic acid, reference compound], in series [1], the AUC was found to be 2820 ng·h/mL, the maximum concentration (Cmax) was 4410 ng/mL, the clearance was 5.78 mL/min/kg and the half-life was 1.28 h. In addition, the IC50 in series [2] came to 4.75 µM. In the series with fibrinolysis, the “anti-fibrinolytic activity, times that of EACA” value is given as “about 10 times”. Besides, the “Compound concentration for doubling CLT” value in series [3] stood at 1.78 µM. In series [3] (clot lysis time at the doubling concentration), the CLT doubling is listed as 34.66 min.
